Assay results from patent US20240092779A1, “USP1 INHIBITORS AND USES THEREOF” (Zentaur Therapeutics USA Inc., priority 2022, published 2024).
≈ marks a conversion by molar mass, not a printed value.

How the values were obtained:
[1] = biological target: T1, recombinant USP1/UAF1 enzyme complex (Homo sapiens, UniProt O94782); experiment: Enzyme assay: deubiquitinase fluorometric assay with ubiquitin-Rhodamine substrate; type: biochemical; conditions: USP1/UAF1, Ub-Rho110 substrate, 2 hours preincubation, 1 hour reaction
T1 construct: purchased Biortus
Description: Enzymatic inhibitory potency of the compounds was assessed in a deubiquitinase fluorometric assay using ubiquitin-Rhodamine (Ub-Rho110, R&D Systems) as substrate and the recombinant USP1/UAF1 enzyme complex (Biortus). Assays were performed in a final volume of 12 μL using black 384-well plates (Corning #4514) containing 50 mM HEPES (pH 7.5, BioRoYee), 0.5 mM EDTA, 1 mM dithiothreitol, 0.1 mg/mL bovine serum albumin, 50 nM Ub-Rhol10, 0.004 nM USP1/UAF1, and series diluted compounds from 10 μM to 0.5 nM (10 dilution steps). Assay-ready plates containing 40 nL of Echo-dispensed compound in DMSO were reconstituted with 2 μL of ddH2O, then 5 μL of USP1/UAF1 enzyme mixture was added and preincubated at room temperature for 2 hours. Enzymatic reaction was initiated by the addition of […] substrate mixture and assay allowed to proceed for 1 hour at room temperature before quenching with 3 μL of 150 mM citric acid. Fluorescence signal was detected via TECAN SPARK with excitation at 485 nm and emission at 535 nm. Data analysis was done using GraphPad Prism8 and IC50 values were obtained by 4-parameter logistic curve fitting.
(§1) Certain compounds were tested in the assays.

[2] = test system: MDA-MB-436 cells; experiment: CTG Protocol (MDA-MB-436 GI50), antiproliferative activity; type: cell-based, human; conditions: Homo sapiens, 168 h; MDA-MB-436 cells (BRCA1 mutation), 7-day incubation, CellTiter-Glo
Description: CTG Protocol (MDA-MB-436 GI50)
Antiproliferative activity of USP1 inhibitors was determined using breast cancer cell line MDA-MB-436 that harbors BRCA1 mutation. MDA-MB-436 cells (ATCC, HTB-130) was seeded with a seeding density of 1000 cells per well and 95 μL DMEM medium (Gibco, 10566016) into 96-well cell plates (Corning, 3610), and incubated overnight at 37° C. and 5% CO2. Compounds were solubilized in DMSO (Solarbio, D8371) as 10 mM stock solution, and then series diluted (3 folds) with DMSO for 9-point dose-response testing. The resulted series dilutions were then jump-diluted 50-fold by cell culture medium to afford the 20×stock solutions (containing 2% DMSO). Treatment was initiated by adding 5 μL of 20×stock solution to the assay plate and incubated at 37° C. and 5% CO2. At the end of 7-day incubation, cell assay plates were removed from incubation and equilibrated to room temperature (20 min). Then 100 μL of CellTiter-Glo (Promega, G9243) reagent, prepared per manufacturer's protocol, was added to each well, and the resulted plates were centrifuged 1,000 rpm for 1 minute, incubated at room temperature in the dark for 20 minutes, sealed with Perkin Elmer sticky film, and the luminescence signal read by Envision (Perkin Elmer).
Data analysis • a) % Inhibition was calculated using following equation: […]
X: compound concentration; Y: % Inhibition
as §1

[3] = Liver microsomal stability (HLM); type: in vitro ADME; conditions: human, liver microsomes, human liver microsomes 0.5 mg/mL, 1 μM compound, NADPH
Description: Liver Microsomal Stability
Certain Compounds of the Disclosure were assessed for ADME metabolic stability in human liver microsomes (HLM).
Samples were prepared by adding 222.5 μL of a master solution (100 mM phosphate buffer and 0.5 mg/mL liver microsomes (HLM)) and 25 μL of a 10 mM NADPH solution to incubation plates, which were then warmed for 10 min. Each compound was separately dissolved in DMSO to prepare 10 mM stock solutions, which were then diluted to 100 μM with acetonitrile. A reaction was started by adding 2.5 μL of the […] solution of each compound to separate incubation plates such that the final concentration of for each compound in each plate was 1 μM. Aliquots of 30 μL were taken from the reaction solution at 0.5, 5, 15, 30 and 60 minutes. The reaction was stopped by the addition of 5 volumes of cold acetonitrile with IS (100 nM alprazolam, 200 nM caffeine and 100 nM tolbutamide). Aliquot of 100 μL of the supernatant was diluted by 100 μL ultra-pure water, and the mixture was used for LC/MS/MS analysis. Peak areas were determined from extracted ion chromatograms. […]. The percentage of remaining parent was calculated from peak area of test compound or PC. The slope value, k, is determined by linear regression of the natural logarithm of percent parent remaining vs. incubation time curve. All calculations are carried out using Microsoft Excel.
The in vitro half-life (in vitro t1/2) is determined from the slope value:
Conversion of the in vitro t1/2 (in min) into the in vitro intrinsic clearance (in vitro CLint, (HLM Clint (μL/min/mg proteins))) is done using the following equation: […]
A: HLM Clint <10 μL/min/mg; B: 10 μL/min/mg≤HLM Clint <50 μL/min/mg; C: HLM Clint ≥50 μL/min/mg.

[4] = Solubility in FaSSIF (Fasted State Simulated Intestinal Fluid); type: physicochemical; conditions: kinetic from dmso stock, FaSSIF pH 6.5, 25° C.
Description: Solubility in FaSSIF (Fasted State Simulated Intestinal Fluid)
Certain Compounds of the Disclosure were assessed for the apparent solubility in FaSSIF.
0.420 g of NaOH, 3.438 g of NaH2PO4 and 6.186 g of NaCl were dissolved into about 900 mL ultrapure water. The solution was adjusted to the pH of 6.5 with 1N NaOH or 1N HCl. The solution was then diluted with ultrapure water to 1000 mL at room temperature. The resulting solution is used as buffer solution.
2.240 g of FaSSIF Powder was added to about 500 mL of above-mentioned buffer solution. The solution was stirred until powder was completely dissolved. Then the solution was diluted with buffer A to 1000 mL at room temperature. This solution is FaSSIF to be used in the following experiment.
15 μL of stock solution (10 mM) of each sample was placed into their proper 96-well rack. 485 μL of FaSSIF was added into each vial of the cap-less solubility sample plate. One stir stick was added to each vial and the vial was sealed using a molded PTFE/Silicone plug. The solubility sample plate was transferred to the Eppendorf Thermomixer Comfort plate shaker and shaked at 25° C. at 1100 RPM for 2 hours. After completion of the 2 hours, the stir sticks using a big magnet were removed. The samples from the solubility sample plate were transferred into the filter plate. Using the vacuum manifold, all the samples are filtered. Aliquot of 5 μL was taken from filtrate followed by addition of 5 μL DMSO and 490 μL of a mixture of H2O and acetonitrile containing internal standard (1:1).
3 μM Standards solution (STD) was prepared from the 10 mM DMSO STD plate.as following: transferring 6 μL into the remaining empty plate, adding 194 μL of DMSO to that plate to have a STD concentration of 300 μM. From the 300 μM DMSO STD plate, 5 μL solution was transferred into the remaining empty plate. Addition of 5 μL PBS and 490 μL of a mixture of H2O and acetonitrile containing internal standard (1:1) to that plate furnished a final STD concentration of 3 μM STD solution.
The samples are analyzed and quantified against the standard of known concentration using LC/MS/MS, calculating the solubility of the test compound as following (DF means the dilution factor):
[Sample solubility in FsSSIF (04)]=Area Ratio sample×DF sample×[STD]/Area Ratio STD

T1 sequence (O94782 whole entry): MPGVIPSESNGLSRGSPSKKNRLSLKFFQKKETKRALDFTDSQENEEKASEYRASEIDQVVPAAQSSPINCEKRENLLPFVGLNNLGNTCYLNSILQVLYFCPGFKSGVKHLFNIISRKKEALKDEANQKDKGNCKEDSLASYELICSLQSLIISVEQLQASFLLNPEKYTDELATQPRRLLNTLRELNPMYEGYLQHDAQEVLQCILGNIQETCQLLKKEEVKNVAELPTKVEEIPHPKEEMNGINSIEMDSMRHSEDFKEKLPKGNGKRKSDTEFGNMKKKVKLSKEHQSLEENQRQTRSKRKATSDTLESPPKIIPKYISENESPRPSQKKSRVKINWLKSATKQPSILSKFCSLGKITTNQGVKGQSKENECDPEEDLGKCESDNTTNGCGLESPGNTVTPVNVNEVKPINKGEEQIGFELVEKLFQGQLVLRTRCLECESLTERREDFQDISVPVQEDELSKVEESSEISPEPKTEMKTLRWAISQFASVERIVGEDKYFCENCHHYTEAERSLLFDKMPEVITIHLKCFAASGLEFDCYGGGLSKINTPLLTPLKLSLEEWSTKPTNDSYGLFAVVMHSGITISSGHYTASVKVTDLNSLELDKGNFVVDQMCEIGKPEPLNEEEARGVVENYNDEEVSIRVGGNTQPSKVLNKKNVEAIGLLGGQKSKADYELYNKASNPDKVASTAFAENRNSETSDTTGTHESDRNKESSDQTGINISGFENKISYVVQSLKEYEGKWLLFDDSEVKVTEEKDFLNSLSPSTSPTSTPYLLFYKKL
T1 sequence (Q8TAF3 whole entry partner): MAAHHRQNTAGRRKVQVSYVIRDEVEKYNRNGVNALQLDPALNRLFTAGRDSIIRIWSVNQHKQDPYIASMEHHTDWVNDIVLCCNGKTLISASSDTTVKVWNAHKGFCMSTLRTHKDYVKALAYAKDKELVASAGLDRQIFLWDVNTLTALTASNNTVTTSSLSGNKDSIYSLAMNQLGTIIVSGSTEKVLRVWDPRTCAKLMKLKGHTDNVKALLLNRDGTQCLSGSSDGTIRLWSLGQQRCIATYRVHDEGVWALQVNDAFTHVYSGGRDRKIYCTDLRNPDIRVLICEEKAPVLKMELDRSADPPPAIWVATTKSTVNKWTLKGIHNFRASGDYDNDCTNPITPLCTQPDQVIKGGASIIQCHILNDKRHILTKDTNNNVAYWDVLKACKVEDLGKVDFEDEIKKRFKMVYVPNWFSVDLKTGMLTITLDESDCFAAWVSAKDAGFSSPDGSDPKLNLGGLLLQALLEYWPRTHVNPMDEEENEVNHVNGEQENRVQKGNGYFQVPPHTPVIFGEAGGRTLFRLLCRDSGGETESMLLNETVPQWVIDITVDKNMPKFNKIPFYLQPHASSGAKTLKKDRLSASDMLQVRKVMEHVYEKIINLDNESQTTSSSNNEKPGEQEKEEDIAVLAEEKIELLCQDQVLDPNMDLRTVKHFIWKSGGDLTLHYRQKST

Compound | IC50 [1] | GI50 [2] | microsomal CLint at 1 μM [3] | solubility at 2 h [4]
COc1ncnc(C2CC2)c1-c1ncc2c(C)c(-c3cnn(C)c3)c(=O)n(Cc3ccc(-c4nc(C(F)(F)F)cn4C4CC4)cc3)c2n1 [Compound I-128] |  |  | < 10 µL/min/mg | 10 to 100 µM (≈ 6.54 to 65.4 µg/mL)
COc1ncnc(OC)c1-c1ncc2ccc(=O)n(Cc3ccc(-c4nc(C(F)(F)F)cn4C4CC4)cc3)c2n1 [Compound I-102] |  |  | 10 to 50 µL/min/mg | ≥ 100 µM
COc1ncnc(C2CC2)c1-c1ncc2cc(-c3cnn(C)c3)c(=O)n(Cc3ccc(-c4nc(C(F)(F)F)cn4C)cc3)c2n1 [Compound I-64] |  |  | < 10 µL/min/mg | < 10 µM
COc1ncnc(C2CC2)c1-c1ncc2ccc(=O)n(Cc3ccc(-c4nc(C(F)(F)F)cn4C(C)C)c(F)c3OC)c2n1 [Compound I-23, 2-(4-cyclopropyl-6-methoxypyrimidin-5-yl)-8-({3-fluoro-4-[1-isopropyl-4-(trifluoromethyl)imidazol-2-yl]-2-methoxyphenyl}methyl)pyrido[2,3-d]pyrimidin-7-one] |  |  | 10 to 50 µL/min/mg | < 10 µM
COc1ncnc(C2CC2)c1-c1ncc2cc(-c3ncccn3)c(=O)n(Cc3ccc(-c4nc(C(F)(F)F)cn4C4CC4)cc3)c2n1 [Compound I-145] |  |  | < 10 µL/min/mg | ≥ 100 µM
COc1ncnc(C2CC2)c1-c1nc(C)c2ccc(=O)n(Cc3ccc(-c4nc(C(F)(F)F)cn4C4CC4)cc3)c2n1 [Compound I-135] |  |  | < 10 µL/min/mg | ≥ 100 µM
O=c1ccc2cnc(-c3c(OC(F)F)ncnc3C3CC3)nc2n1Cc1ccc(-c2nc(C(F)(F)F)cn2C2CC2)cc1 [Compound I-103] |  |  | < 10 µL/min/mg | < 10 µM
COc1cc(Cn2c(=O)ccc3cnc(-c4c(OC)ncnc4C4CC4)nc32)cc(F)c1-c1nc(C(F)(F)F)cn1C(C)C [Compound I-22, 2-(4-cyclopropyl-6-methoxypyrimidin-5-yl)-8-({3-fluoro-4-[1-isopropyl-4-(trifluoromethyl)imidazol-2-yl]-5-methoxyphenyl}methyl)pyrido[2,3-d]pyrimidin-7-one] |  |  | 10 to 50 µL/min/mg | ≥ 100 µM
COc1cc(Cn2c(=O)cnc3cnc(-c4c(OC)ncnc4C4CC4)nc32)ccc1-c1nc(C(F)(F)F)cn1C1CC1 [Compound I-125] |  |  | 10 to 50 µL/min/mg | ≥ 100 µM
COc1ncnc(C2CC2)c1-c1ncc2cc(-c3cnn(C4CN(C)C4)c3)c(=O)n(Cc3ccc(-c4nc(C(F)(F)F)cn4C4CC4)cc3)c2n1 [Compound I-137] |  |  | 10 to 50 µL/min/mg | ≥ 100 µM

Now from value to compound:

IC50 [1] | GI50 [2] | microsomal CLint at 1 μM [3] | solubility at 2 h [4] | Compound
0.01 to 0.1 µM | 0.01 to 0.1 µM |  |  | CCn1cc(C(F)(F)F)nc1-c1ccc(Cn2c(=O)c(C(=O)N(C)C)cc3cnc(-c4c(OC)ncnc4C4CC4)nc32)cc1 [Compound I-39, 2-(4-cyclopropyl-6-methoxypyrimidin-5-yl)-8-({4-[1-ethyl-4-(trifluoromethyl)imidazo]-2-yl]phenylmethyl)-N,N-dimethyl-7-oxopyrido[2,3-d]pyrimidine-6-carb oxamide]
 |  | 10 to 50 µL/min/mg | < 10 µM | COc1ncnc(C2CC2)c1-c1ncc2cc(-c3cn(C)c(C)n3)c(=O)n(Cc3ccc(-c4nc(C(F)(F)F)cn4C4CC4)cc3)c2n1 [Compound I-144]
 |  | < 10 µL/min/mg | < 10 µM | COc1ncnc(C2CC2)c1-c1ncc2ccc(=O)n(Cc3ccc(-n4nc(C(F)(F)F)cc4OC)cc3)c2n1 [Compound I-110]
 |  | 10 to 50 µL/min/mg | ≥ 100 µM | COc1ncnc(C2CC2)c1-c1ncc2cc(-c3cnn(C4CCN(C)CC4)c3)c(=O)n(Cc3ccc(-c4nc(C(F)(F)F)cn4C4CC4)cc3)c2n1 [Compound I-143]
 |  | < 10 µL/min/mg | ≥ 100 µM | COc1ncnc(C2CC2)c1-c1ncc2cc(-c3cccnc3)c(=O)n(Cc3ccc(-c4nc(C(F)(F)F)cn4C4CC4)cc3)c2n1 [Compound I-139]
 |  | 10 to 50 µL/min/mg | 10 to 100 µM (≈ 6.07 to 60.7 µg/mL) | COc1cc(Cn2c(=O)ccc3cnc(-c4c(OC)ncnc4C4CC4)c(F)c32)ccc1-c1nc(C(F)(F)F)cn1C1CC1 [Compound I-126]
 |  | < 10 µL/min/mg | ≥ 100 µM | COc1ncnc(C2CC2)c1-c1ncc2cc(C3CCN(C)CC3)c(=O)n(Cc3ccc(-n4nc(C(F)(F)F)cc4C)cc3)c2n1 [Compound I-121]
 |  | < 10 µL/min/mg | 10 to 100 µM (≈ 5.9 to 59 µg/mL) | COc1cc(Cn2c(=O)ccc3cnc(-c4c(OC)ncnc4C4CC4)nc32)ccc1-c1nc(C(F)(F)F)cn1C1CC1 [Compound I-124]
 |  | 10 to 50 µL/min/mg | ≥ 100 µM | COc1cc(Cn2c(=O)ccc3cnc(-c4c(OC)ncnc4C4CC4)nc32)cc(F)c1-c1nc(C(F)(F)F)cn1C1CC1 [Compound I-53]
 |  | < 10 µL/min/mg | < 10 µM | COc1ncnc(C2CC2)c1-c1ncc2ccc(=O)n(Cc3ccc(-c4nc(C(F)(F)F)cn4C(C)C)cc3)c2n1 [Compound I-4, 2-(4-Cyclopropyl-6-Methoxypyrimidin-5-Yl)-8-({4-[1-Isopropyl-4-(Trifluoromethyl)Imidazol-2-Yl]Phenyl}Methyl)Pyrido[2,3-d]Pyrimidin-7-One]
 |  | < 10 µL/min/mg | 10 to 100 µM (≈ 5.8 to 58 µg/mL) | COc1cc(Cn2c(=O)ccc3cnc(-c4c(OC)ncnc4C4CC4)nc32)ccc1-n1nc(C(F)(F)F)cc1OC [Compound I-122]
